Reference: ChEMBL document CHEMBL5257035, “Nucleoside Derived Antibiotics to Fight Microbial Drug Resistance: New Utilities for an Established Class of Drugs?” (J Med Chem, 2016)
≈ marks a conversion by molar mass, not a printed value.

Columns and labels:
Aspergillus fumigatus [1] = test: Antifungal activity against Aspergillus fumigatus assessed as fungal growth inhibition; format: functional
Cryptococcus neoformans [2] = test: Antifungal activity against Cryptococcus neoformans assessed as fungal growth inhibition measured after 24 hrs by micro broth dilution method; format: functional
Candida albicans [3] = test: Antifungal activity against Candida albicans assessed as fungal growth inhibition measured after 24 hrs by micro broth dilution method; format: functional
Pseudomonas aeruginosa [4] = test: Antimicrobial activity against Pseudomonas aeruginosa M35 assessed as reduction in microbial growth; format: functional
Pseudomonas aeruginosa [5] = test: Antibacterial activity against Pseudomonas aeruginosa assessed as reduction in bacterial growth; format: functional
Candida albicans [6] = test: Antifungal activity against Candida albicans assessed as inhibition of fungal growth; format: functional
Aspergillus fumigatus [7] = test: Antifungal activity against Aspergillus fumigatus assessed as inhibition of fungal growth; format: functional
[8] = biological target: Phospho-N-acetylmuramoyl-pentapeptide-transferase (Staphylococcus aureus, UniProt P0C1R8); test: Inhibition of Staphylococcus aureus MraY
Aspergillus niger = test: Antifungal activity against Aspergillus niger MTCC 282 assessed as reduction in microbial growth measured after 48 hrs by broth dilution method; format: functional
Cryptococcus neoformans [9] = test: Antifungal activity against Cryptococcus neoformans assessed as reduction in fungal growth; format: functional
Coccidioides immitis = test: Antifungal activity against Coccidioides immitis assessed as reduction in fungal growth; format: functional
Staphylococcus aureus [10] = test: Antimicrobial activity against methicillin-resistant Staphylococcus aureus assessed as reduction in microbial growth by broth microdilution method; format: functional
Enterococcus faecalis = test: Antimicrobial activity against Enterococcus faecalis 10785 assessed as reduction in microbial growth by broth microdilution method; format: functional
[11] = Inhibition of Candida albicans chitin synthase
Candida albicans [12] = test: Inhibition of Candida albicans chitin synthase at 1 uM relative to control
[13] = biological target: Phospho-N-acetylmuramoyl-pentapeptide-transferase (Bacillus subtilis (strain 168), UniProt Q03521); test: Inhibition of Bacillus subtilis MraY
Candida albicans [14] = test: Antifungal activity against Candida albicans B-311 assessed as reduction fungal growth incubated for 16 hrs by microbroth dilution method; format: functional
Cryptococcus neoformans [15] = test: Antifungal activity against Cryptococcus neoformans assessed as fungal growth inhibition; format: functional
Fusarium oxysporum = test: Antifungal activity against Fusarium oxysporum assessed as inhibition of fungal growth; format: functional
Streptococcus pyogenes = test: Antimicrobial activity against Streptococcus pyogenes ATCC 12344 assessed as reduction in microbial growth by broth microdilution method; format: functional
Mycobacterium avium = test: Antimycobacterial activity against Mycobacterium avium assessed as microbial growth reduction; format: functional
[16] = test system: Mycobacterium intracellulare; test: Antimycobacterial activity against Mycobacterium intracellulare assessed as microbial growth reduction; format: functional
Mycobacterium kansasii = test: Antimycobacterial activity against Mycobacterium kansasii assessed as microbial growth reduction; format: functional
Staphylococcus aureus [17] = test: Antimicrobial activity against methicillin-resistant Staphylococcus aureus 10925 assessed as reduction in microbial growth by broth microdilution method; format: functional
Candida albicans [18] = test: […] activity against Candida albicans assessed as […] measured after 24 hrs by microtitre dilution method; format: functional
Candida albicans [19] = test: Antifungal activity against Candida albicans SC5314 assessed as reduction in microbial growth inhibition incubated for 48 hrs by broth microdilution assay; format: functional
[20] = test system: Cutaneotrichosporon cutaneum; test: Antifungal activity against Trichosporon cutaneum 3071 assessed as reduction in microbial growth inhibition for 48 hrs by broth microdilution assay; format: functional
[21] = Inhibition of Candida albicans SC5314 chitin synthase using UDP-GlcNAc as substrate incubated for 1 hr

Phospho-N-acetylmuramoyl-pentapeptide-transferase (Staphylococcus aureus, UniProt P0C1R8), sequence (P0C1R8 whole entry): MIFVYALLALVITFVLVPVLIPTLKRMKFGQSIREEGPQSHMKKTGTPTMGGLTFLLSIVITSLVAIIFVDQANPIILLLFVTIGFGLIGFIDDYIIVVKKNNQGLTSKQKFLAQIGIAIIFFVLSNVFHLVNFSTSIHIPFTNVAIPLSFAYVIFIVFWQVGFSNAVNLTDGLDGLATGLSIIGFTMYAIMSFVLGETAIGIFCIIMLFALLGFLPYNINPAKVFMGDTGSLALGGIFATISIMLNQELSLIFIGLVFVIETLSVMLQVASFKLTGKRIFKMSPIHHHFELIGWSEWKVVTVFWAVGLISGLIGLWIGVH
Phospho-N-acetylmuramoyl-pentapeptide-transferase (Bacillus subtilis (strain 168), UniProt Q03521), sequence (Q03521 whole entry): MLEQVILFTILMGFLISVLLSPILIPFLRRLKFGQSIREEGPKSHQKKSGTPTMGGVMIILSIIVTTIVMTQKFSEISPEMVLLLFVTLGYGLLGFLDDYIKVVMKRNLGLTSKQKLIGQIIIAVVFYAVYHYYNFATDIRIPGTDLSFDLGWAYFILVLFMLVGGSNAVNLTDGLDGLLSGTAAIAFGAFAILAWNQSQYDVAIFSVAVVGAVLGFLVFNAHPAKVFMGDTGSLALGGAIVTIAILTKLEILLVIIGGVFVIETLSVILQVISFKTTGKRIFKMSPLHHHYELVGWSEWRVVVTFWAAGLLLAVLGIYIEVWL

`C=CCSC[C@H]1O[C@@H](n2cnc3c([N+](=O)[O-])cccc32)[C@H](O)[C@@H]1O` showed an MIC (Aspergillus fumigatus [1]) of 0.19 µM (≈ 0.0668 µg/mL), an MIC (Cryptococcus neoformans [2]) of 0.19 µM (≈ 0.0668 µg/mL) and an MIC (Candida albicans [3]) of 0.19 µM (≈ 0.0668 µg/mL).

For `CSCC[C@H](NC(=O)N[C@@H](Cc1cccc(O)c1)C(=O)O)C(=O)NC(CN(C)C(=O)C1Cc2ccc(O)cc2CN1)C(=O)N/C=C1/C[C@@H](O)[C@H](N2CCC(=O)NC2=O)O1` (some centres undefined), the MIC (Pseudomonas aeruginosa [4]) was 6.25 µg/mL.

`C[C@H](N)C(=O)N(C)[C@@H](C)[C@H](NC(=O)[C@H](C)NC(=O)N[C@@H](Cc1c[nH]c2ccccc12)C(=O)O)C(=O)N/C=C1/C[C@@H](O)[C@H](n2ccc(=O)[nH]c2=O)O1` [PACIDAMYCIN D] showed an MIC (Pseudomonas aeruginosa [5]) of 32 µg/mL (≈ 45 µM).

Compound `Nc1ccc(C(=O)OC[C@H]2O[C@@H](n3ccc(=O)[nH]c3=O)[C@H](O)[C@@H]2O)c(O)c1` has an MIC (Candida albicans [6]) of 1000 µg/mL (≈ 2640 µM) and an MIC (Aspergillus fumigatus [7]) of 1000 µg/mL (≈ 2640 µM).

Work on `COC(=O)C1=C[C@@H](O)[C@@H](O)[C@H](O[C@@H](C(N)=O)[C@H]2O[C@@H](n3ccc(=O)[nH]c3=O)[C@H](O)[C@@H]2OC)O1` yielded an IC50 [8] of 27 nM.

With `C[C@@H]([C@H](N)C(=O)N[C@H](C(=O)O)[C@@H]1C[C@@H](O)[C@@H](O)[C@H](n2ccc(=O)[nH]c2=O)O1)[C@H](O)c1ccc(O)cc1` the MIC (Aspergillus niger) was 0.03 µg/mL, the MIC (Cryptococcus neoformans [9]) was 0.25 µg/mL (≈ 0.492 µM) and the MIC (Coccidioides immitis) was 0.03 µg/mL (≈ 0.059 µM). The MIC (Candida albicans [6]) was 0.03 µg/mL (≈ 0.059 µM).

Work on `O=C(OC[C@H]1O[C@@H](n2ccc(=O)[nH]c2=O)[C@H](O)[C@@H]1O)c1ccccc1O` yielded an MIC (Candida albicans [6]) of 1000 µg/mL (≈ 2740 µM) and an MIC (Aspergillus fumigatus [7]) of 1000 µg/mL (≈ 2740 µM).

`COc1ccc(Cn2c(=O)ccn([C@@H]3O[C@H]([C@H](O)[C@H](NCCCNC(=O)[C@@H](N)[C@@H](O)C(C)C)C(=O)OC(C)(C)C)[C@@H](O[Si](C)(C)C(C)(C)C)[C@H]3O[Si](C)(C)C(C)(C)C)c2=O)cc1` showed an MIC (Staphylococcus aureus [10]) of 4 µg/mL and an MIC (Enterococcus faecalis) of 4 µg/mL.

`O=C(NC[C@@H]1O[C@H](n2ccc(=O)[nH]c2=O)[C@@H](O)[C@H]1O)OCCOC(=O)NC[C@H]1O[C@@H](n2ccc(=O)[nH]c2=O)[C@H](O)[C@@H]1O` showed an IC50 [11] of 1100 nM and an inhibition (Candida albicans [12]) of 32%.

`C[C@H](N)C(=O)N[C@@H](C)[C@H](NC(=O)[C@H](C)NC(=O)N[C@@H](Cc1c[nH]c2ccccc12)C(=O)O)C(=O)N/C=C1\O[C@@H](n2ccc(=O)[nH]c2=O)[C@H](O)[C@@H]1O` showed an IC50 [13] of 42 nM.

In the case of `CC(C)C[C@H](N)C(=O)N[C@H](C(=O)N[C@@H](C(=O)O)[C@H]1OC(n2cc(C=O)[nH]c2=O)[C@H](O)[C@@H]1O)[C@H](C)[C@H](O)c1cc(O)ccn1` (some centres undefined), the MIC (Candida albicans [14]) is reported as 83 µg/mL (≈ 136 µM).

For `COc1ccc(OCc2cn(C[C@H]3O[C@@H](n4ccc(=O)[nH]c4=O)[C@@H]4OC(C)(C)O[C@@H]43)nn2)cc1`, the MIC (Cryptococcus neoformans [15]) was 8 µg/mL (≈ 17 µM), the MIC (Fusarium oxysporum) was 32 µg/mL (≈ 67.9 µM) and the MIC (Candida albicans [6]) was 24 µg/mL (≈ 50.9 µM).

With `O=c1[nH]c(=O)n([C@H]2C[C@H](O)[C@@H](CO)O2)cc1F` [FLOXURIDINE] the MIC (Streptococcus pyogenes) was 0.003 µg/mL.

For `CCCCCCCCCCCCCCC(=O)O[C@@H]1[C@H](OC)[C@@H]([C@@H](O[C@@H]2OC(C(=O)N[C@H]3CCC[C@@H](C)NC3=O)=C[C@@H](O)[C@H]2O)C(N)=O)O[C@H]1n1ccc(=O)[nH]c1=O`, the MIC (Mycobacterium avium) was 0.063 µg/mL (≈ 0.078 µM), the MIC [16] was 0.063 µg/mL (≈ 0.078 µM) and the MIC (Mycobacterium kansasii) was 0.063 µg/mL (≈ 0.078 µM).

For `Nc1ccn([C@@H]2O[C@H](CO)[C@@H](O)C2(F)F)c(=O)n1` [GEMCITABINE], the MIC (Staphylococcus aureus [17]) was 0.002 µg/mL.

`NC(=O)OC[C@H](O)[C@@H](O)[C@H](N)C(=O)N[C@H](C(=O)O)[C@H]1O[C@@H](n2cc(C=O)[nH]c2=O)[C@H](O)[C@@H]1O` showed an MIC (Candida albicans [18]) of 6 µg/mL (≈ 12.6 µM).

Work on `C[C@@H]([C@H](N)C(=O)N[C@H](C(=O)O)[C@H]1O[C@@H](n2ccc(=O)[nH]c2=O)[C@H](O)[C@@H]1O)[C@H](O)c1ccc(O)cn1` [NIKKOMYCIN] yielded an IC50 [11] of 800 nM, an MIC (Candida albicans [19]) of 8 µg/mL and an MIC (Candida albicans [14]) of 10 µg/mL (≈ 20.2 µM). It also gave an MIC (Cryptococcus neoformans [9]) of 0.03 µg/mL (≈ 0.0606 µM), an MIC [20] of 64 µg/mL and an IC50 [21] of 0.3 µg/mL (≈ 0.606 µM). For the same compound, the MIC (Coccidioides immitis) was 0.25 µg/mL (≈ 0.505 µM).

Work on `CCOC(=O)CCSC[C@H]1O[C@@H](n2cnc3c(N)cccc32)[C@H](O)[C@@H]1O` yielded an MIC (Aspergillus fumigatus [1]) of 0.19 µM (≈ 0.0725 µg/mL), an MIC (Cryptococcus neoformans [2]) of 0.19 µM (≈ 0.0725 µg/mL) and an MIC (Candida albicans [3]) of 0.19 µM (≈ 0.0725 µg/mL).
